Laboratory results published in PubChem BioAssay AID256 (DTP/NCI, 2004).
Where “and” joins values, the source holds several entries; their conditions need not be identical. Equal values may be shown once. Toxic doses and inconclusive results are not listed.

Tested on: CD2F1 mice, L1210 leukemia ip, survival T/C
Experiment: NCI In Vivo Anticancer Drug Screen. Data for tumor model L1210 Leukemia (intraperitoneal) in CD2F1 (CDF1) mice
Conditions: higher = longer survival
Summary of the method: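 Activity against a transplanted murine tumor was judged by comparing the compound group with a vehicle group. The outcome in the treated animals was divided by that in the controls.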

[1] = endpoint: mean survival time, dose: 100.0 mg/kg/injection, schedule: Q04DX002 (ip), vehicle: saline with Tween-80
[2] = endpoint: mean survival time, dose: 200.0 mg/kg/injection, schedule: Q04DX002 (ip), vehicle: saline with Tween-80
[3] = endpoint: mean survival time, dose: 100.0 mg/kg/injection, schedule: Q04DX003 (ip), vehicle: saline with Tween-80
[4] = endpoint: mean survival time, dose: 200.0 mg/kg/injection, schedule: Q04DX003 (ip), vehicle: saline with Tween-80
[5] = endpoint: mean survival time, dose: 400.0 mg/kg/injection, schedule: Q04DX003 (ip), vehicle: saline with Tween-80

CN(N=O)C(N)=O
T/C (endpoint: mean survival time, dose: 5.0 mg/kg/injection, schedule: Q03DX003 (ip), vehicle: saline): 112 % of control | T/C (endpoint: mean survival time, dose: 5.0 mg/kg/injection, schedule: Q04DX003 (ip), vehicle: saline): 117 % of control | T/C (endpoint: mean survival time, dose: 10.0 mg/kg/injection, schedule: Q01DX007 (ip), vehicle: saline): 166 % of control | T/C (endpoint: mean survival time, dose: 10.0 mg/kg/injection, schedule: Q01DX009 (ip), vehicle: saline): 175 % of control | T/C (endpoint: mean survival time, dose: 20.0 mg/kg/injection, schedule: Q01DX007 (ip), vehicle: saline): 124 % of control | T/C (endpoint: mean survival time, dose: 20.0 mg/kg/injection, schedule: Q03DX003 (ip), vehicle: saline): 156 % of control | T/C (endpoint: median survival time, dose: 12.0 mg/kg/injection, schedule: Q01DX009 (ip), vehicle: saline + alcohol): 172 % of control | T/C (endpoint: median survival time, dose: 14.0 mg/kg/injection, schedule: Q04DX003 (ip), vehicle: saline): 113 % of control | T/C (endpoint: median survival time, dose: 14.0 mg/kg/injection, schedule: Q07DX003 (ip), vehicle: saline + alcohol): 106 % of control | T/C (endpoint: median survival time, dose: 20.0 mg/kg/injection, schedule: Q07DX003 (ip), vehicle: saline + alcohol): 118 % of control | T/C (endpoint: median survival time, dose: 26.0 mg/kg/injection, schedule: Q07DX003 (ip), vehicle: saline + alcohol): 116 % of control | T/C (endpoint: median survival time, dose: 33.0 mg/kg/injection, schedule: Q07DX003 (ip), vehicle: saline + alcohol): 123 % of control | T/C (endpoint: median survival time, dose: 36.0 mg/kg/injection, schedule: Q04DX003 (ip), vehicle: saline + alcohol): 151 % of control | T/C (endpoint: median survival time, dose: 40.0 mg/kg/injection, schedule: Q04DX003 (ip), vehicle: saline): 160 % of control | T/C (endpoint: median survival time, dose: 50.0 mg/kg/injection, schedule: Q01DX009 (ip), vehicle: saline + alcohol): 107 % of control | T/C (endpoint: median survival time, dose: 60.0 mg/kg/injection, schedule: Q04DX003 (ip), vehicle: saline + alcohol): 157 % of control | T/C (endpoint: median survival time, dose: 67.0 mg/kg/injection, schedule: Q04DX003 (ip), vehicle: saline): 167 % of control | T/C (endpoint: median survival time, dose: 100.0 mg/kg/injection, schedule: Q04DX003 (ip), vehicle: saline + alcohol): 97 % of control

CN(C)c1ccc(NC(=S)Nc2ccc(N(C)C)cc2)cc1
T/C (endpoint: mean survival time, dose: 25.0 mg/kg/injection, schedule: Q01DX001 (ip), vehicle: saline with Tween-80): 97 % of control | T/C (endpoint: mean survival time, dose: 50.0 mg/kg/injection, schedule: Q01DX001 (ip), vehicle: saline with Tween-80): 102 % of control | T/C (endpoint: mean survival time, dose: 100.0 mg/kg/injection, schedule: Q01DX001 (ip), vehicle: saline with Tween-80): 94 % of control

CC1NC(=O)OC1(C)c1ccccc1 (stereo not drawn)
T/C [1]: 103 % of control | T/C [2]: 98 % of control

S=C(Nc1ccccn1)c1ccccn1
T/C [1]: 111 % of control | T/C [3]: 100 % of control | T/C [2]: 95 % of control | T/C [4]: 94 % of control | T/C (endpoint: mean survival time, dose: 400.0 mg/kg/injection, schedule: Q04DX002 (ip), vehicle: saline with Tween-80): 103 % of control | T/C [5]: 103 % of control

CC(Oc1ccc(Cl)cc1)C(/C=N/N=C(N)N)=N/N=C(N)N (stereo not drawn)
T/C (endpoint: mean survival time, dose: 1.56 mg/kg/injection, schedule: Q01DX009 (ip), vehicle: saline): 100 % of control | T/C (endpoint: mean survival time, dose: 3.13 mg/kg/injection, schedule: Q01DX009 (ip), vehicle: saline): 98 % of control | T/C (endpoint: mean survival time, dose: 6.25 mg/kg/injection, schedule: Q01DX009 (ip), vehicle: saline): 102 % of control | T/C (endpoint: mean survival time, dose: 12.5 mg/kg/injection, schedule: Q01DX009 (ip), vehicle: saline): 100 % of control | T/C (endpoint: mean survival time, dose: 25.0 mg/kg/injection, schedule: Q01DX009 (ip), vehicle: saline): 96 % of control and 101 % of control

CCC(NC(N)=O)C(CC)NC(N)=O (stereo not drawn)
T/C (endpoint: median survival time, dose: 12.5 mg/kg/injection, schedule: Q01DX009 (ip), vehicle: saline with Tween-80): 97 % of control | T/C (endpoint: median survival time, dose: 25.0 mg/kg/injection, schedule: Q01DX009 (ip), vehicle: saline with Tween-80): 96 % of control | T/C (endpoint: median survival time, dose: 50.0 mg/kg/injection, schedule: Q01DX009 (ip), vehicle: saline with Tween-80): 90 % of control

O=C(CC(O)(C(F)(F)F)C(F)(F)F)c1cccc(Cl)c1
T/C (endpoint: mean survival time, dose: 100.0 mg/kg/injection, schedule: Q01DX009 (ip), vehicle: saline with Tween-80): 107 % of control | T/C [3]: 105 % of control | T/C (endpoint: mean survival time, dose: 200.0 mg/kg/injection, schedule: Q01DX009 (ip), vehicle: saline with Tween-80): 103 % of control | T/C [4]: 105 % of control | T/C (endpoint: mean survival time, dose: 400.0 mg/kg/injection, schedule: Q01DX009 (ip), vehicle: saline with Tween-80): 119 % of control | T/C [5]: 110 % of control

COc1cc2c(c(OC)c1OC)-c1ccc(SC)c(=O)cc1[C@@H](NC(=O)CCl)CC2
T/C (endpoint: mean survival time, dose: 0.05 mg/kg/injection, schedule: Q01DX009 (ip), vehicle: water): 108 % of control | T/C (endpoint: mean survival time, dose: 0.1 mg/kg/injection, schedule: Q01DX009 (ip), vehicle: water): 106 % of control | T/C (endpoint: mean survival time, dose: 0.2 mg/kg/injection, schedule: Q01DX009 (ip), vehicle: water): 115 % of control | T/C (endpoint: mean survival time, dose: 0.4 mg/kg/injection, schedule: Q01DX009 (ip), vehicle: water): 108 % of control and 111 % of control | T/C (endpoint: mean survival time, dose: 0.8 mg/kg/injection, schedule: Q01DX009 (ip), vehicle: water): 120 % of control and 108 % of control
